{
  "source": "paper PMC10121968",
  "about": "“Fosgonimeton, a Novel Positive Modulator of the HGF/MET System, Promotes Neurotrophic and Procognitive Effects in Models of Dementia” (Neurotherapeutics, 2022)",
  "key": {"[1]": {"assay": "Fosgonimeton CNS distribution in rats", "assay_type": "in vivo, rat", "conditions": "12 mg/kg fosgonimeton SC", "procedure": "Three male Sprague Dawley rats per time point were given 12 mg/kg fosgonimeton via SC injection. At 0.16, 0.5, and 1 h after dosing, animals were humanely killed and perfused with chilled saline. Brains were collected and dissected into the following brain regions: whole brain, striatum, olfactory bulb, hippocampus, cerebellum, cerebral cortex, and brainstem. Brain regions were homogenized and the exposures of fosgonimeton and fosgo-AM were determined by LC/MS/MS."}, "[2]": {"assay": "Plasma PK in rats after SC injection", "assay_type": "in vivo, rat", "procedure": "Four male rats were treated with 10 mg/kg fosgo-AM in DMSO via SC injection. Blood was serially collected at 0.08, 0.25, 0.5, 1, 2, and 4 h after dosing. Plasma was obtained by centrifugation with 2% disodium ethylenediaminetetraacetic acid (EDTA) as an anticoagulant. Plasma samples were precipitated with acetonitrile containing internal standard, and the concentration of fosgo-AM was determined by LC/MS/MS.\nThis study was conducted as described in the “Fosgo-AM PK in Rats” section with the following changes: animals were given 12 mg/kg fosgonimeton in saline with 0.1% glycine via SC injection, and a dose-linear correction was applied to normalize the dose to 10 mg/kg for comparison with the fosgo-AM study. Sample concentrations of both fosgonimeton and fosgo-AM were determined."}, "[3]": {"tested_on": "primary rat hippocampal neurons", "assay": "Neurite outgrowth assay (beta-III tubulin staining)", "assay_type": "cell-based", "conditions": "4 days, vs vehicle", "procedure": "On day 0, rat hippocampal neurons from newborn pups were isolated and cultured in brain neuronal culture medium (neurobasal medium supplemented with 5% FBS, 2% B-27 supplement, and 0.003% gentamycin) at 37 °C under 5% CO2. At 1 day in vitro (DIV1), cells were transferred to a poly-D-lysine–coated 24-well plate at approximately 10,000 cells/well. Cells were then grown in […] of serum-free medium and treated with the following: 0.1% dimethyl sulfoxide (DMSO; vehicle), 10 nM dihydrotestosterone (positive control), 10 nM fosgo-AM, 1 nM fosgo-AM, 5 ng/ml HGF, or 5 ng/ml HGF + 1 nM fosgo-AM. All treatments contained a final concentration of 0.1% DMSO. For the neurite outgrowth assay, treatment media were refreshed on DIV3, and cells were processed for analysis on DIV4. For the synaptogenesis assay, treatment media were refreshed on DIV3 and DIV6, and cells were processed for analysis on DIV8. Processing for both the neurite outgrowth and the synaptogenesis assays was performed as follows: media were removed, and cells were fixed with 100% methanol for 20 min at RT before methanol was aspirated and each well was washed twice with Dulbecco’s phosphate-buffered saline (DPBS). Cells were permeabilized using 0.02% […] (ThermoFisher, Waltham, Massachusetts) in DPBS for 2 min at RT without shaking, and plates were blocked with 5% bovine serum albumin (BSA) in DPBS for 1 h at RT. Plates were then incubated overnight at 4 °C with gentle shaking with use of beta-III tubulin antibody (ab201740; Abcam, Boston, Massachusetts) to assess neurite outgrowth or with use of 1:500 rabbit anti–synaptobrevin-II antibody (Synaptic Systems, cat# 104 202, Göttingen, Germany) to assess synaptogenesis. After overnight incubation, plates were washed 3 times with DPBS and incubated for 1 h at RT with use of anti–rabbit immunoglobulin G–secondary antibody conjugated to Alexa Fluor 488 (Life Technologies, Carlsbad, California, 1:500). After 5 DPBS washes, coverslips were mounted on slides using fluorescent mounting medium (Golden Bridge International Labs, Bothell, Washington, cat# E19-s). Imaging was performed using the BX43 Olympus microscope driven by the standard “CellSens” software by Olympus. […] Ten images of single cells from a total of 2 assays were analyzed using NeuroJ plug-in for ImageJ to assess neurite outgrowth, as neurite length and the number of branches per neuron were counted for each cell. For the synaptogenesis assay, synaptic count (number of synapses) and synaptic strength (relative abundance of presynaptic vesicles per synapse as measured by synaptobrevin-II fluorescence intensity) were quantified for each cell. Data were assessed for normality (Shapiro–Wilk) and homoscedasticity (Brown-Forsythe). […]"}, "MDCK cells": {"tested_on": "MDCK cells", "assay": "MDCK cell scatter behavior assay", "assay_type": "cell-based, canine", "conditions": "HGF 10 ng/mL + fosgo-AM 10 pM, 100 pM and 1 nM, 24 h, vs HGF alone", "procedure": "Madin-Darby canine kidney (MDCK, ATCC CCL-34) cells were grown at 37 °C, 5% CO2 in Eagle’s Minimum Essential Medium (EMEM) + 10% FBS in T-75 flasks until 80% confluent. Cells were then plated at 1400 cells/well in black-walled, clear-bottom 96-well plates and grown at 37 °C under 5% CO2 for 24 h. Growth media were replaced by serum-free media for 2 h before treatment. Treatments containing HGF and fosgo-AM were made in serum-free media and applied in quintuplicates for 24 h at 37 °C under 5% CO2. Cells were then fixed in chilled 100% EtOH at 4 °C for 20 min and then stained with wheat germ agglutinin conjugated to CF488 (WGA488, Biotium, 29,022–1, Fremont, California) at […] in phosphate-buffered saline (PBS) for 30 min at RT to visualize whole-cell surfaces. Cultures were then imaged with an iCys instrument (iCyte, Thor Labs, Newton, New Jersey) and analyzed with the ImageJ (National Institutes of Health) particle count feature. Scattering behavior was quantified by normalizing particle counts against total stained area. […] Data were assessed for normality (Shapiro–Wilk) and homoscedasticity (Brown-Forsythe). The statistical difference from HGF alone was determined by one-way ANOVA with Dunnett’s multiple comparison post-test with an alpha value of 0.05 (Prism, GraphPad)."}},
  "note": "Non-standard residues stand in square brackets, D forms with d. Residues, ends and D or L forms follow the SMILES beside them. *: point of attachment. Hexanoyl = CCCCCC(=O)*; Ahx = NCCCCCC(=O)O",
  "data": [
    {"smiles": "CCCCCC(=O)N[C@@H](Cc1ccc(O)cc1)C(=O)N[C@H](C(=O)NCCCCCC(N)=O)[C@@H](C)CC", "note": "[fosgo-AM] (Hexanoyl-Tyr-Ile-[Ahx]-NH2)", "values": [
      {"measurement": "time to maximum concentration (Tmax) in brain regions", "setting": "[1]; all regions", "value": 10, "unit": "min"},
      {"measurement": "Cmax, ng/g ± SEM", "setting": "[1]; brainstem", "value": "58.3 ± 11.3", "unit": "ng/g"},
      {"measurement": "Tmax", "setting": "[1]; brainstem", "value": 9.6, "unit": "min"},
      {"measurement": "Cmax, ng/g ± SEM", "setting": "[1]; cerebellum", "value": "23.8 ± 4.1", "unit": "ng/g"},
      {"measurement": "Tmax", "setting": "[1]; cerebellum", "value": 9.6, "unit": "min"},
      {"measurement": "Cmax, ng/g ± SEM", "setting": "[1]; cerebral cortex", "value": "36.5 ± 12.0", "unit": "ng/g"},
      {"measurement": "Tmax", "setting": "[1]; cerebral cortex", "value": 9.6, "unit": "min"},
      {"measurement": "Cmax, ng/g ± SEM", "setting": "[1]; hippocampus", "value": "49.8 ± 30.5", "unit": "ng/g"},
      {"measurement": "Tmax", "setting": "[1]; hippocampus", "value": 9.6, "unit": "min"},
      {"measurement": "Cmax, ng/g ± SEM", "setting": "[1]; olfactory bulb", "value": "43.7 ± 7.3", "unit": "ng/g"},
      {"measurement": "Tmax", "setting": "[1]; olfactory bulb", "value": 9.6, "unit": "min"},
      {"measurement": "Cmax, ng/g ± SEM", "setting": "[1]; striatum", "value": "24.1 ± 12.8", "unit": "ng/g"},
      {"measurement": "Tmax", "setting": "[1]; striatum", "value": 9.6, "unit": "min"},
      {"measurement": "Cmax, ng/g ± SEM", "setting": "[1]; whole brain", "value": "31.9 ± 23.8", "unit": "ng/g"},
      {"measurement": "Tmax", "setting": "[1]; whole brain", "value": 9.6, "unit": "min"},
      {"measurement": "fosgo-AM maximum concentration (Cmax) in plasma", "setting": "[2]; after SC delivery of fosgonimeton (12 mg/kg, normalized to 10 mg/kg), after metabolism", "value": 1198, "unit": "ng/mL"},
      {"measurement": "fosgo-AM maximum concentration (Cmax) in plasma", "setting": "[2]; after direct SC delivery of fosgo-AM 10 mg/kg", "value": 329, "unit": "ng/mL"},
      {"measurement": "neurite length per cell", "setting": "[3]; 1 nM fosgo-AM + 5 ng/mL HGF", "value": "significantly increased neurite length per cell"},
      {"measurement": "neurite length per cell", "setting": "[3]; 10 nM", "value": "significant increase in neurite length per cell"},
      {"measurement": "number of neurite branches", "setting": "[3]; HGF ± fosgo-AM", "value": "did not reach statistical significance"},
      {"measurement": "cell scattering behavior", "setting": "MDCK cells", "value": "significant cell scattering"}
    ]}
  ]
}
